One experiment has as its system human venous whole blood, CD8 positive population (pERK). As to the kind of experiment: DGK human whole blood pERK assay. As to conditions: Homo sapiens, CD8 positive, human whole blood pERK; read-out: DGK HWB. The format is cell-based. How it is done:
Assay 11: DGK Human Whole Blood pERK Assay
Human whole blood ERK phosphorylation assay was performed with human venous whole blood obtained from healthy donors (drawn with Heparin as anti-coagulant). […] Heparinized human whole blood was added to the compound plate at 9 μL per well and incubated for one hour at 37° C. in a humidified 95%, air/5% CO2 incubator. After one hour of compound incubation, 1 μL of human anti-CD3 antibody (in-house) in the presence of cross-linking antibody goat anti-mouse IgG (4 μg/mL) was added to the well at 1 μg/mL final concentration for stimulation of pathway and additionally incubated for 15 minutes at 37° C. […] Samples analyzed using the Intellicyt® iQue Screener PLUS. The pERK activation was quantitated by the percentage of pERK positive population within CD8 positive population.
Regarding `CC1CN(c2cc(=O)n(C)c3ccc(C#N)nc23)CCC1N(C)Cc1ccc(F)cc1` (single isomer, unassigned) [Example 327, -(4-((4-fluorobenzyl)(methyl)amino)-3-methylpiperidin-1-yl)-5-methyl-6-oxo-5,6-dihydro-1,5-naphthyridine-2-carbonitrile], the EC50 is 1.9 µM. The same measure, in the same setting: next, `CC1CN(c2c(C#N)c(=O)n(C)c3ccc(C#N)nc23)CCC1N(C)C1CCC(F)(F)CC1` (single isomer, unassigned) [Example 329]: 13 µM.

Staying with this experiment, now noted: Homo sapiens, CD8 positive, read-out: DGK HWB, human whole blood pERK.
As for `C[C@@H]1CN(c2cc(=O)n(C)c3ccc(C#N)nc23)[C@@H](C)CC1N(C)Cc1ccc(F)cc1` (single isomer, unassigned) [Example 331], the EC50 came to 11 µM.

In the case of `C[C@@H]1CC(Oc2cccc(C(F)(F)F)c2)[C@@H](C)CN1c1nc(=O)n(C)c2ccc(C#N)nc12` (stereo in doubt) [Example 251, 4-((2R,5S)-2,5-dimethyl-4-(3-(trifluoromethyl)phenoxy)piperidin-1-yl)-1-methyl-2-oxo-1,2-dihydropyrido[3,2-d]pyrimidine-6-carbonitrile], the EC50 was 1.8 µM. Still for that read-out and setting: under `C[C@@H]1CN(c2nc(=O)n(C)c3ccc(C#N)nc23)[C@@H](C)CC1Oc1cccc(C(F)(F)F)c1` (stereo in doubt) [Example 252, 4-((2S,5R)-2,5-dimethyl-4-(3-(trifluoromethyl)phenoxy)piperidin-1-yl)-1-methyl-2-oxo-1,2-dihydropyrido[3,2-d]pyrimidine-6-carbonitrile] stands 3.5 µM; under `CC(C)Oc1ccc(OC2C[C@@H](C)N(c3nc(=O)n(C)c4ccc(C#N)nc34)C[C@@H]2C)nc1` (stereo partly drawn) [Example 248, 4-((2R,5S)-4-((5-isopropoxypyridin-2-yl)oxy)-2,5-dimethylpiperidin-1-yl)-1-methyl-2-oxo-1,2-dihydropyrido[3,2-d]pyrimidine-6-carbonitrile], 0.74 µM; under `CC[C@@H]1CN(c2cc(=O)n(C)c3ccc(C#N)nc23)[C@@H](C)C[C@H]1Oc1ccc(OC(C)C)cn1` [Example 296, 8-((2S,4R,5R)-5-ethyl-4-((5-isopropoxypyridin-2-yl)oxy)-2-methylpiperidin-1-yl)-5-methyl-6-oxo-5,6-dihydro-1,5-naphthyridine-2-carbonitrile], 13 µM.

In the case of `CC[C@@H]1CN(c2cc(=O)n(C)c3ccc(C#N)nc23)[C@H](C)C[C@H]1Oc1ccc(OC(C)C)cn1` [Example 297, 8-((2R,4R,5R)-5-ethyl-4-((5-isopropoxypyridin-2-yl)oxy)-2-methylpiperidin-1-yl)-5-methyl-6-oxo-5,6-dihydro-1,5-naphthyridine-2-carbonitrile], the EC50 was 0.68 µM. On the same count and under the same terms, under `CC[C@@H]1CN(c2cc(=O)n(C)c3ccc(C#N)nc23)[C@H](C)C[C@@H]1Oc1ccc(OC(C)C)cn1` [Example 298, 8-((2R,4S,5R)-5-ethyl-4-((5-isopropoxypyridin-2-yl)oxy)-2-methylpiperidin-1-yl)-5-methyl-6-oxo-5,6-dihydro-1,5-naphthyridine-2-carbonitrile] stands 0.91 µM; under `CC[C@@H]1CN(c2cc(=O)n(C)c3ccc(C#N)nc23)[C@@H](C)C[C@@H]1Oc1ccc(OC(C)C)cn1` [Example 299, 8-((2S,4S,5R)-5-ethyl-4-((5-isopropoxypyridin-2-yl)oxy)-2-methylpiperidin-1-yl)-5-methyl-6-oxo-5,6-dihydro-1,5-naphthyridine-2-carbonitrile], 0.78 µM; under `CC[C@@H]1CN(c2nc(=O)n(C)c3ccc(Cl)nc23)[C@@H](C)C[C@H]1Oc1ccc(OC(C)C)cn1` [Example 300, 6-chloro-4-((2S,4R,5R)-5-ethyl-4-((5-isopropoxypyridin-2-yl)oxy)-2-methylpiperidin-1-yl)-1-methylpyrido[3,2-d]pyrimidin-2(1H)-one], 8.3 µM. Same read-out and setting: next, `CC[C@@H]1CN(c2nc(=O)n(C)c3ccc(C#N)nc23)[C@@H](C)C[C@H]1Oc1ccc(OC(C)C)cn1` [Example 301, 4-((2S,4R,5R)-5-ethyl-4-((5-isopropoxypyridin-2-yl)oxy)-2-methylpiperidin-1-yl)-1-methyl-2-oxo-1,2-dihydropyrido[3,2-d]pyrimidine-6-carbonitrile]: 11 µM.

The same experiment, now with this note: human whole blood pERK; read-out: DGK HWB.
Turning to `CC1CN(c2c(C#N)c(=O)n(C)c3ccc(C#N)nc23)CCC1N(C)C1CCC(F)(F)CC1` (single isomer, unassigned) [Example 330], the EC50 was determined as 20 µM.

The same experiment, now with this note: read-out: DGK HWB; human whole blood pERK.
Turning to `CC1CN(c2c(C#N)c(=O)n(C)c3ccc(C#N)nc23)CCC1N(C)C(=O)c1ccc(C(F)(F)F)cc1` (single isomer, unassigned) [Example 293, N-(1-(3,6-dicyano-1-methyl-2-oxo-1,2-dihydro-1,5-naphthyridin-4-yl)-3-methylpiperidin-4-yl)-N-methyl-4-(trifluoromethyl)benzamide], the EC50 is 20 µM.

As for `C[C@@H]1CN(c2cc(=O)n(C)c3ccc(C#N)nc23)[C@@H](C)CC1N(C)Cc1ccc(F)cc1` (single isomer, unassigned) [Example 332], the EC50 turned out to be 16 µM. Still for that read-out and setting: next, `C[C@H]1CN(c2cc(=O)n(C)c3ccc(C#N)nc23)[C@@H](C)CC1N(C)Cc1ccc(F)cc1` (single isomer, unassigned) [Example 333]: 5.5 µM. Same read-out and setting: under `C[C@H]1CN(c2cc(=O)n(C)c3ccc(C#N)nc23)[C@@H](C)CC1N(C)Cc1ccc(F)cc1` (single isomer, unassigned) [Example 334] stands 20 µM; under `CC(C)Oc1ccc(OC2C[C@H](C)N(c3nc(=O)n(C)c4ccc(C#N)nc34)C[C@H]2C)nc1` (stereo partly drawn) [Example 247, 4-((2S,5R)-4-((5-isopropoxypyridin-2-yl)oxy)-2,5-dimethylpiperidin-1-yl)-1-methyl-2-oxo-1,2-dihydropyrido[3,2-d]pyrimidine-6-carbonitrile], 0.74 µM. Turning to `CC(C)Oc1ccc(OC2C[C@@H](C)N(c3nc(=O)n(C)c4ccc(C#N)nc34)C[C@@H]2C)nc1` (stereo partly drawn) [Example 249, 4-((2R,5S)-4-((5-isopropoxypyridin-2-yl)oxy)-2,5-dimethylpiperidin-1-yl)-1-methyl-2-oxo-1,2-dihydropyrido[3,2-d]pyrimidine-6-carbonitrile], the EC50 turned out to be 0.49 µM. Regarding `CC(C)Oc1ccc(OC2C[C@H](C)N(c3nc(=O)n(C)c4ccc(C#N)nc34)C[C@H]2C)nc1` (stereo partly drawn) [Example 250, 4-((2S,5R)-4-((5-isopropoxypyridin-2-yl)oxy)-2,5-dimethylpiperidin-1-yl)-1-methyl-2-oxo-1,2-dihydropyrido[3,2-d]pyrimidine-6-carbonitrile], the EC50 worked out at 2.1 µM. With `C[C@@H]1CN(c2nc(=O)n(C)c3ccc(C#N)nc23)[C@H](C)CC1Oc1cccc(C(F)(F)F)c1` (stereo partly drawn) [Example 256, 4-((2R,5R)-2,5-dimethyl-4-(3-(trifluoromethyl)phenoxy)piperidin-1-yl)-1-methyl-2-oxo-1,2-dihydropyrido[3,2-d]pyrimidine-6-carbonitrile], the EC50 was found to be 4.7 µM.

With `C[C@@H]1CN(c2nc(=O)n(C)c3ccc(C#N)nc23)[C@H](C)CC1Oc1cccc(C(F)(F)F)c1` (stereo partly drawn) [Example 257, 4-((2R,5R)-2,5-dimethyl-4-(3-(trifluoromethyl)phenoxy)piperidin-1-yl)-1-methyl-2-oxo-1,2-dihydropyrido[3,2-d]pyrimidine-6-carbonitrile], the EC50 stood at 0.8 µM.

(Values after US11964973B2 (priority 2019, dated 2024).)
